Here are results for twelve compounds from patent US4835157A, “Thieno- and furopyrimidine-2,4-dione piperidine derivatives as serotonin antagonists and alpha adrenergic blocking agents” (Ortho Pharmaceutical Corporation, priority 1988, dated 1989).

Experiment [1] deals with T1, 5HT1A receptor (Rattus norvegicus, UniProt P19327).
T1 construct: Membrane fragments were prepared from prefrontal cortex; from tissue; host or cells: prefrontal/frontal cortex of female rats (about 150 g), membrane fragments
T1 sequence (P19327 1-422): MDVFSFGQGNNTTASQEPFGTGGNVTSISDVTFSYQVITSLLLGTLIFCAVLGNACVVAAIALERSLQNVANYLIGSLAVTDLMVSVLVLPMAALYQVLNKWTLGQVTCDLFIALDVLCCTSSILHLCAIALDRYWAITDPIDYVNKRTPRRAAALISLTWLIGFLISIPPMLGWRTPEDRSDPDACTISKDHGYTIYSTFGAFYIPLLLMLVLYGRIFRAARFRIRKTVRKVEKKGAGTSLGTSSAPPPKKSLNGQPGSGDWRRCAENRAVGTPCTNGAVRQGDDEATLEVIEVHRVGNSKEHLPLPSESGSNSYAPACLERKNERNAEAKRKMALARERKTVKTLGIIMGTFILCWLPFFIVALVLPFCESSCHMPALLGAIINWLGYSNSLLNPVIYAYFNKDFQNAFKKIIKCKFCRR
The experiment can be described thus: Brain Serotonin (5HT1A) radioreceptor Assay (3H-8-OH DPAT displacement, rat frontal cortex membranes). The following applies: for pIC50: rat frontal cortex membranes, pH 7.4, read-out: Brain 5-HT1 Receptor IC50; for inhibition at 1 µM: read-out: Brain 5-HT1 Receptor % displaced (% inhibition). The format is binding. Here is the method:
Brain Serotonin (5HT1A) radioreceptor Assay
The text objects of this procedure were rat frontal cortex membranes. Membrane fragments were prepared from prefrontal cortex disected from brains obtained from female rats (≈150 g). The 5HT1A sites were labeled with ^3 H-8-OH dipropylaminotetralin (8-OH-DPAT). Membrane fragments, ^3 H-8-OH DPAT, TRIS buffer (pH 7.4) and unlabeled compound were incubated for 10 minutes at 37° C. and then for 10 minutes at 4° C. Separation of bound from unbound ^3 H-8-OH DPAT was performed by vacuum filtration on a glass fiber disc. The ability of a compound to compete with ^3 H-8-OH DPAT for binding sites is a measure of the affinity of the compound for the 5HT1A receptor. Specific binding was determined by the difference between total counts bound and the counts bound in the presence of […] 5-hydroxytryptamine.

Experiment [2] has as its system Serotonin-Induced Smooth Muscle Contractions (rabbit thoracic aorta). Put plainly: Inhibition of Serotonin-Induced Smooth Muscle Contractions (isolated thoracic aorta strips). The format is cell-based. The conditions noted are these: Oryctolagus cuniculus, 10 min, concentration shifting the serotonin dose curve 10x to the right, 10 min preincubation, read-out: 5-HT-Induced Smooth Muscle Contraction DR10. Here is the method:
Inhibition of Serotonin-Induced Smooth Muscle Contractions
The test objects of this Example were canines and rabbits. Rabbits were sacrificed by T-61 injection and the thoracic aorta was removed immediately. The aorta was placed in warmed, oxygenated Krebs-Henseleit buffer. After the tissue was cleaned, a 2-3 mm wide strip was cut helically from each aorta. A strip of approximately 5 cm was suspended in Krebs-Henseleit buffer at 37° C. in a 25 ml tissue bath and the tissues equilibrated at an initial resting tension of 4 g for 90-120 minutes. An initial serotonin dose curve, 0.01-10 μM was then done on each tissue, followed by a 60 minute washout and reequilibration. The test drug was then added for a 10 minute preincubation and another serotonin dose curve was done using 0.01-100 μM.
Results are expressed as DR10 values. This is the concentration of the compound required to shift the serotonin dose curve 10x to the right, i.e., the concentration of antagonist at which the concentration of serotonin required for 50% maximal contraction is increased ten-fold.

For experiment [3], the system named is serotonin-induced platelet aggregation. Put plainly: Platelet Aggregation Assay (serotonin-induced). The format is cell-based. The conditions noted are these: Platelet; human plasma, serotonin 5 μM. Here is the method:
Platelet Aggegation Assay
Human blood was collected into tubes containing sodium citrate. The plasma was separated by centrifugation and was used as the source of platelets. Serotonin (5 μM) was used as the agonist to induce platelet aggregation. A control aggregation curve (as measured by the decrease in absorbance in transmitted light) was obtained in the presence of serotonin and in the absence of test compound. The test compound was added to an identical sample in a cuvette for one minute before addition of serotonin to yield the experimental curve.

Experiment [4] concerns the target T2, 5HT2 (Rattus norvegicus, UniProt P14842). The experiment can be described thus: Brain Serotonin (5-HT2) Radioreceptor Assay (3H-ketanserin displacement, rat frontal cortex membranes). The format is binding. The arrangement: dissected from brains obtained from female rats; from tissue; host or cells: frontal cortex of female rats (about 150 g), membrane fragments. The following applies: 15 min at 37° C. The method, then:
Brain Serotonin (5-HT2) Radioreceptor Assay
The test objects of this Example were rat frontal cortex membranes. Mebrane fragments were prepared from the frontal cortex dissected from brains obtained from female rats (≈150 g). […] Compound bound to the receptor site was separated from the remaining unbound compound by vacuum filtration. […] Specific binding was determined by the difference between total counts bound and counts bound in the presence of 10^-6 M methysergide.

The target of experiment [5] is T2, 5HT2. Put plainly: 5HT2 Blockade in vivo (antagonism of 5HT induced pressor responses). The following applies: for ED50: rat, iv, read-out: 5-HT-Induced Pressor Response ED50. The arrangement: Spontaneously hypertensive rats were anesthetized with sodium pentobarbital; from tissue; host or cells: whole animal: anesthetized spontaneously hypertensive rats (vasculature); species or system spontaneously hypertensive rats. Here is the method: Antagonism of 5HT induced pressor responses was used to assess 5HT2 blockade in vivo. Spontaneously hypertensive rats were anesthetized with sodium pentobarbital (50 mg/kg, i.p.). The right carotid artery and vein were cannulated for pressure recording and drug injection, respectively. The trachea was cannulated, the rat placed on a respirator and ventilated with room air at 50-60 breaths/minute. Rats were pretreated with prazosin hydrochloride (1 mg/kg, i.v., blous) and pentolinium tartrate (5 mg/kg, i.v., bolus). After 10 minutes equilibration, the rat was challenged with 5HT (100 μg/kg) which elevates mean arterial pressure (MAP) 60-100 mmHg; non-responsive rats were discarded.
After a baseline had been reestablished, bolus injections of 5HT (100 μg/kg, i.v.) were given and the MAP responses were evaluated both pre- and post-drug administration. 5HT challenges were repeated 10 minutes after each dose of antagonist. Up to three cumulative doses of the antagonist were given to a single animal.

The test system of experiment [6] is serotonin receptors. Put plainly: Inhibition of 5-HTP-Induced Head Twitching. The format is in vivo. The conditions noted are these: male CD1 mice; for Inhibit. of 5-HTP-Head Twitch ED50: 5-HTP 160 mg/kg i.v. after one hour; for Inhibit. of 5-HTP-Head Twitch (result in words): @ 10 (mg/kg, p.o.). The method, then:
Inhibition of 5-HTP-Induced Head Twitching
This test detects compounds with antagonistic activity of serotonin receptors in vivo, and is a modified procedure of Corne, Pickering and Warner, Brit. J. Pharmacol. 20, 106 (1963). Groups of male CD1 mice were fasted overnight but allowed water ad libitum. They were deprived of water during the course of the experiment. The mice were weighed and treated orally or parenterally with the test compound in a dose volume of 10 ml/kg. Doses of test substance were calculated based upon the active compound. Substances for oral administration were dissolved or suspended in a 0.5% aqueous methylcellulose (15 centipoises) vehicle containing 4 ml of Tween 80/l.
A dose of 160 mg/kg of L-5-hydroxytryptophan (5-HTP) was administered i.v. in a dose volume of 5 ml/kg after one hour. The test mouse was restrained in a rodent restrainer that allowed the tail to extend out the back. The tail was then placed in tepid (but not scalding) water for approximately 10 seconds to soften the skin and dilate the tail vein. A 1 ml syringe and 25 gauge (5/8 inch) needle was used to administer the 5-HTP solution into one of the lateral tail veins.
A timer was started after dosing with 5-HTP to the first animal of the test group. […] A head twitch involves the head, neck and ears and has the appearance of an exaggerated pinal reflex. The number of head twitches for each individual vehicle-treated mouse were recorded to establish a historical baseline.
The active compounds in the test block the twitch response (the response rated all or none).

pIC50: −log10 of the molar value. Like-named read-outs stand apart in the source and are kept apart here.

T2 sequence (P14842 whole entry, the tested form may be a part): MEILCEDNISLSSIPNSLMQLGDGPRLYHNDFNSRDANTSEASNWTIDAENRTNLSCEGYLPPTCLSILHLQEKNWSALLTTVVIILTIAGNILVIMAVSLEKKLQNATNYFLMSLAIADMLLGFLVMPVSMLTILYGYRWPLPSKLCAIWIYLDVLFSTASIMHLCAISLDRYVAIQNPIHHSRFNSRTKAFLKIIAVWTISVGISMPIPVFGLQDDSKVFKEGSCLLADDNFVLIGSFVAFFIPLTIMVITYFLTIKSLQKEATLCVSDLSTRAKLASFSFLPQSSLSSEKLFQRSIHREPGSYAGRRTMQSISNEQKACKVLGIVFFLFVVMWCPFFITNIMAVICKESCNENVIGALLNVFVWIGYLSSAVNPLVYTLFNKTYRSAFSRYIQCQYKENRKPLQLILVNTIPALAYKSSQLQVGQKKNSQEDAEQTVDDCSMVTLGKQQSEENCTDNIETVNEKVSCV

With `O=c1[nH]c2cscc2c(=O)n1CCCCCN1CCC(=C(c2ccc(F)cc2)c2ccc(F)cc2)CC1` [Example 20, 3-[5-[4-[Bis(4-fluorophenyl)methylene]piperidin-1-yl]pentyl]thieno[3,4-d]pyrimidine-2,4-dione], the pIC50 (as a rule, the negative decadic logarithm of the IC50, by convention in mol/L) in experiment [1] (3H-8-OH DPAT) was 6.57; in experiment [3], 6.52; in experiment [4] it was 6.19. In addition, the IC (10-fold shift) in experiment [2] worked out at 0.085 µM.

With `CC(C)(C)C(=O)n1c(=O)n(CCN2CCC(=C(c3ccc(F)cc3)c3ccc(F)cc3)CC2)c(=O)c2cscc21` [Example 7, 3-[2-[4-[Bis(4-fluorophenyl)methylene]piperidin-1-yl]ethyl]-1-(2,2-dimethyl-1-oxopropyl)thieno[3,4-d]pyrimidine-2,4-dione], in experiment [1] (@ 1 μM, 3H-8-OH DPAT), the inhibition (usually the percentage by which the read-out fell short of the control) at 1 µM turned out to be 3%. Besides, the IC (10-fold shift) in experiment [2] was 0.02 µM. The pIC50 was 5.60 in experiment [3] and 9.51 in experiment [4]. Further, the ED50 – broadly, the midpoint of the dose-response relation – in experiment [5] was 0.038 mg/kg.

`CCCCn1c(=O)n(CCN2CCC(C(=O)c3ccc(F)cc3)CC2)c(=O)c2cscc21` [Example 15, 1-Butyl-3-[2-[4-(4-fluorobenzoyl)piperidin-1-yl]ethyl]thieno[3,4-d]pyrimidine-2,4-dione 1/4 Hydrate]: in experiment [1] (@ 1 μM, 3H-8-OH DPAT), the inhibition at 1 µM is 0%. Further, in experiment [6], the “Inhibit. of 5-HTP-Head Twitch ED50” value is given as 1-10 mg/kg, p.o. This compound also gave a pIC50 in experiment [4] of 6.35.

In the case of `Cn1c(=O)n(CCN2CCC(=C(c3ccc(F)cc3)c3ccc(F)cc3)CC2)c(=O)c2cscc21` [Example 23], the figures for the pIC50 in experiment [1] (3H-8-OH DPAT), in experiment [3] and in experiment [4] were 5.52, 4.77 and 8.74, respectively. Besides, the IC (10-fold shift) in experiment [2] is 0.066 µM. Besides, the ED50 in experiment [5] was > 0.3 mg/kg.

As to `O=C(c1ccc(F)cc1)C1CCN(CCn2c(=O)c3cscc3n(C(=O)c3ccccc3)c2=O)CC1` [Example 12, 1-Benzoyl-3-[2-[4-(4-fluorobenzoyl)piperidin-1-yl]ethyl]thieno[3,4-d]pyrimidine-2,4-dione], the inhibition at 1 µM in experiment [1] (@ 1 μM, 3H-8-OH DPAT) amounted to 24%. Also, the pIC50 is 7.00 in experiment [3] and 8.07 in experiment [4]. Moreover, the “Inhibit. of 5-HTP-Head Twitch ED50” value in experiment [6] is 1.74 mg/kg, p.o. For the same compound, the “5-HT-Induced Pressor Response, % attenuation” value in experiment [5] (@ 0.3 (mg/kg), anesthetized SHR, 5HT 100 μg/kg i.v.) was found to be 44%.

Take `Cc1scc2[nH]c(=O)n(CCN3CCC(C(=O)c4ccc(F)cc4)CC3)c(=O)c12` [Example 16, 3-[2-[4-(4-Fluorobenzoyl)piperidin-1-yl]ethyl]-5-methylthieno[3,4-d]pyrimidine-2,4-dione]: in experiment [1] (@ 1 μM, 3H-8-OH DPAT), the inhibition at 1 µM turned out to be 2%. Also, the IC (10-fold shift) in experiment [2] worked out at 0.019 µM. In addition, the pIC50 in experiment [3] was 6.42; in experiment [4], 8.15. In addition, the ED50 in experiment [5] was 0.119 mg/kg.

As to `O=c1[nH]c2cscc2c(=O)n1CCN1CC=C(c2ccccc2)CC1` [Example 24, 3-[2-[4-Phenyl-1,2,3,6-tetrahydropyridin-1-yl]ethyl]thieno[3,4-dy]pyrimidine-2,4-dione], the inhibition at 1 µM in experiment [1] amounted to 53%. The “Inhibit. of 5-HTP-Head Twitch (result in words)” value in experiment [6] is “Inact”. Also, the pIC50 in experiment [4] is 7.54.

Consider `O=C(c1ccc(F)cc1)C1CCN(CCCCn2c(=O)[nH]c3cscc3c2=O)CC1` [Example 19, 3-[4-[4-(4-Fluorobenzoyl)piperidin-1-yl]butyl]thieno[3,4-d]pyrimidine-2,4-dione], for which the values for the pIC50 in experiment [1] (3H-8-OH DPAT) and in experiment [4] were 6.68 and 7.90, respectively. Besides, the “Inhibit. of 5-HTP-Head Twitch ED50” value in experiment [6] is given as 1-10 mg/kg, p.o.

With `O=C(c1ccccc1)n1c(=O)n(CCN2CCC(=C(c3ccc(F)cc3)c3ccc(F)cc3)CC2)c(=O)c2cscc21` [Example 8], the inhibition at 1 µM in experiment [1] (@ 1 μM, 3H-8-OH DPAT) was 0%. In addition, the IC (10-fold shift) in experiment [2] was found to be 0.01 µM. The “Inhibit. of 5-HTP-Head Twitch (result in words)” value in experiment [6] is “Inact”. In experiment [4], the pIC50 is 6.70. Further, the ED50 in experiment [5] stood at 0.038 mg/kg.

For `Cc1scc2[nH]c(=O)n(CCN3CCC(=C(c4ccc(F)cc4)c4ccc(F)cc4)CC3)c(=O)c12` [Example 17], in experiment [1] (@ 1 μM, 3H-8-OH DPAT), the inhibition at 1 µM worked out at 0%. For the same compound, in experiment [6], the “Inhibit. of 5-HTP-Head Twitch (result in words)” value was “Inact”. In experiment [4], this compound showed a pIC50 of 7.49.

Take `CCCCn1c(=O)n(CCN2CCC(C(=O)c3ccc(F)cc3)CC2)c(=O)c2ccsc21` [Example 18, 1-Butyl-3-[2-[4-(4-fluorobenzoyl)piperidin-1-yl]ethyl]thieno[2,3-d]pyrimidine-2,4-dione]: the inhibition at 1 µM in experiment [1] (@ 1 μM, 3H-8-OH DPAT) was 17%. The “Inhibit. of 5-HTP-Head Twitch (result in words)” value in experiment [6] is “Inact”. The compound also showed a pIC50 in experiment [4] of 7.64.

Regarding `CC(C)(C)C(=O)n1c(=O)n(CCN2CCC(C(=O)c3ccc(F)cc3)CC2)c(=O)c2cscc21` [Example 13], the inhibition at 1 µM in experiment [1] (@ 1 μM, 3H-8-OH DPAT) stood at 31%. Further, in experiment [2], the IC (10-fold shift) amounted to 0.03 µM. Moreover, the “Inhibit. of 5-HTP-Head Twitch ED50” value in experiment [6] is listed as 1.98 mg/kg, p.o. This compound had a pIC50 in experiment [4] of 7.82.
